Results from patent US12479847B2 (DANA-FARBER CANCER INSTITUTE, INC., priority 2019, dated 2025).
Like-named read-outs stand apart in the source and are kept apart here.

What was measured:
Assay in all cases: KINOMEscan (ScanMAX) kinase profiling
Format in all cases: binding
panel of 468 kinases [1] = target: T1, panel of 468 kinases (Homo sapiens, UniProt P53778); settings: p38-gamma; 1 μM; read-out: % control
T1 construct: purchased KINOMEscan (ScanMAX) service
T1 sequence (P53778 1-367): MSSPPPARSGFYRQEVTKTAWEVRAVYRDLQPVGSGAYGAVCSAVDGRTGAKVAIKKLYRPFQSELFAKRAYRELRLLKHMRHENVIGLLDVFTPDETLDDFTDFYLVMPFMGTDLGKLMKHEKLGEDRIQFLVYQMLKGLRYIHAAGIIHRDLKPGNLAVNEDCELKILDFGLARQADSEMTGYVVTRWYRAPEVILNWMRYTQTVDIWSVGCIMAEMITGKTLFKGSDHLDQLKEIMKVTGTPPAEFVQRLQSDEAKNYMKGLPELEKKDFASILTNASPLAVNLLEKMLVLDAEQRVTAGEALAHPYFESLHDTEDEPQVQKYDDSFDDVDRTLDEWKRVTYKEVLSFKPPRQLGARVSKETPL

panel of 468 kinases [2] = target: T2, panel of 468 kinases (Homo sapiens, UniProt P10721, D816H); settings: KIT(D816H); 1 μM; read-out: % control
T2 construct: purchased KINOMEscan (ScanMAX) service

panel of 468 kinases [3] = target: T3, panel of 468 kinases (Homo sapiens, UniProt Q8TDC3); settings: BRSK1; 1 μM; read-out: % control
T3 construct: purchased KINOMEscan (ScanMAX) service
T3 sequence (Q8TDC3 1-778): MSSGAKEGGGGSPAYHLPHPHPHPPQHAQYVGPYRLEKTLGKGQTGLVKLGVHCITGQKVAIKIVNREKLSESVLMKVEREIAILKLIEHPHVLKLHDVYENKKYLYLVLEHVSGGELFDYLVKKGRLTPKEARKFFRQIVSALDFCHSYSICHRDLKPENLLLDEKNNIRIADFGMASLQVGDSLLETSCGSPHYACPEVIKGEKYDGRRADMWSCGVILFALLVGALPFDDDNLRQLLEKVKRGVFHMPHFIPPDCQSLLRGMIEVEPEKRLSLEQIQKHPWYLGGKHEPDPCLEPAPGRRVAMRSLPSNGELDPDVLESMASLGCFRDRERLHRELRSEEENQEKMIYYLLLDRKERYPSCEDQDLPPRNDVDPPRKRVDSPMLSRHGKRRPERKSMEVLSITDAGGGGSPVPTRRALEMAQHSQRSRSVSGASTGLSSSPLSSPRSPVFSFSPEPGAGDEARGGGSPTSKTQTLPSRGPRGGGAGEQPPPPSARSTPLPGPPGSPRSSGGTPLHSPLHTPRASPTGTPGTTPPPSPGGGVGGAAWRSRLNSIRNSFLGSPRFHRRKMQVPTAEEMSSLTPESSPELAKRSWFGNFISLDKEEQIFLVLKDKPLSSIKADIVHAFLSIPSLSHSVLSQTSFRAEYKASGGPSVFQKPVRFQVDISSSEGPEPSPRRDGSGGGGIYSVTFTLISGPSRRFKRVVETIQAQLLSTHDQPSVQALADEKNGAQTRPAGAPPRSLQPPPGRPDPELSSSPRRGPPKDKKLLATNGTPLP

panel of 468 kinases [4] = target: T4, panel of 468 kinases (Homo sapiens, UniProt Q32MK0); settings: MLCK; 1 μM; read-out: % control
T4 construct: purchased KINOMEscan (ScanMAX) service
T4 sequence (Q32MK0 1-819): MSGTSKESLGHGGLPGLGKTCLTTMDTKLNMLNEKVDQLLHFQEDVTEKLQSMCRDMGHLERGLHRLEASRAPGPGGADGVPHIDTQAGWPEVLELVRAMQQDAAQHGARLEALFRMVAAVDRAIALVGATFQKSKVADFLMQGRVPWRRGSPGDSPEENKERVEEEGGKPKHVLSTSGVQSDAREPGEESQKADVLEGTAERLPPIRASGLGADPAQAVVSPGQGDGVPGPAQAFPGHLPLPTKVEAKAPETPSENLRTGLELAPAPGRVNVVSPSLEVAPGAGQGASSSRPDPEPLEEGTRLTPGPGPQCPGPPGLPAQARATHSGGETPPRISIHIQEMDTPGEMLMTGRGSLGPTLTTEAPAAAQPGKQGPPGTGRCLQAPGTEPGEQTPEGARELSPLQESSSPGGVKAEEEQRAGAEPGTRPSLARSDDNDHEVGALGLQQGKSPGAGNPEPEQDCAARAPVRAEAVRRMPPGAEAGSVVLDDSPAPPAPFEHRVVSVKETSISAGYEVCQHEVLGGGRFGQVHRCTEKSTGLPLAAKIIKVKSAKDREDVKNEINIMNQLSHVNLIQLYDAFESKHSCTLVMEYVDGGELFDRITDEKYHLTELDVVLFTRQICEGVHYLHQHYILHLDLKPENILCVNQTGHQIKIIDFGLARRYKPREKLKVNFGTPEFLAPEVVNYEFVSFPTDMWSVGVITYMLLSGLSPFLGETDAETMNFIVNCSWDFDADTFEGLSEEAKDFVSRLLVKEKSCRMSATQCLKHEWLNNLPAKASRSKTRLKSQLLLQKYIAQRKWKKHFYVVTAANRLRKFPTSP

panel of 468 kinases [5] = target: T5, panel of 468 kinases (Homo sapiens, UniProt P11802); settings: 1 μM, read-out: % control
T5 construct: purchased KINOMEscan (ScanMAX) service
T5 sequence (P11802 whole entry): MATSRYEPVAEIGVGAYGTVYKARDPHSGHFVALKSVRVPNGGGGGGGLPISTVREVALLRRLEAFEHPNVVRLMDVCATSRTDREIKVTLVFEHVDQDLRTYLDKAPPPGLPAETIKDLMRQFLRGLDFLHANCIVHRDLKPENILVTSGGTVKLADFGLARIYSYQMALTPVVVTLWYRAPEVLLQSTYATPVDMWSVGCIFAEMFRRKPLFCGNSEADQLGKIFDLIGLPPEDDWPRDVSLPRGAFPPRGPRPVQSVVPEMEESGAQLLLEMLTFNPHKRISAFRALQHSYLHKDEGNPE

T2 sequence (P10721 26-976 D816H): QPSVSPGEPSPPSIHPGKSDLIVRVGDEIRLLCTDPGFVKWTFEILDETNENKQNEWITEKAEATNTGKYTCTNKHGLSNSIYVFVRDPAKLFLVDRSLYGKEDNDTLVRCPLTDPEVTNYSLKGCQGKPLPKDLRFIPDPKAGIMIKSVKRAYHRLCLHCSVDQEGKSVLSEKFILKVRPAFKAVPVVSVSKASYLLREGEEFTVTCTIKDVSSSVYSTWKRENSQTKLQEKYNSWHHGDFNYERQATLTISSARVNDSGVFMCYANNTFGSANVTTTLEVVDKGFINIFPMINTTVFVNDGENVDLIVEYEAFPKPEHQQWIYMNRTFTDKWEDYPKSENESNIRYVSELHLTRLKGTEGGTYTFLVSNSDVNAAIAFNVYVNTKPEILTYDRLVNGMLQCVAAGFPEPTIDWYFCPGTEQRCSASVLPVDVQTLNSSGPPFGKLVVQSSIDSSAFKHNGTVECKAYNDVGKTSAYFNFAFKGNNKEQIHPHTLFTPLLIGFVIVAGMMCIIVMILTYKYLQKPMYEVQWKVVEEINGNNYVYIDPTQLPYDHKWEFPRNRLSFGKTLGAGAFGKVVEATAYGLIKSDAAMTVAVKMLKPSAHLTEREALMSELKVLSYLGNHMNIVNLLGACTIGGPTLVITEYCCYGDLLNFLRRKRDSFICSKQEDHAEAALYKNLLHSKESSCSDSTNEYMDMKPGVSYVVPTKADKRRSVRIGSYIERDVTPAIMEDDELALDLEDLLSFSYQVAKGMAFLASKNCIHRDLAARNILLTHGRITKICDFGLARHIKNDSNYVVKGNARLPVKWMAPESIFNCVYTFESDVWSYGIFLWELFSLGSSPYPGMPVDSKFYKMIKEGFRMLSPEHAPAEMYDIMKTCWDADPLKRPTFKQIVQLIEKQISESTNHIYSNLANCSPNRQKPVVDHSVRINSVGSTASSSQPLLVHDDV

SMILES | remaining binding at 1 µM (panel of 468 kinases [1]) [%] | remaining binding at 1 µM (panel of 468 kinases [2]) [%] | remaining binding at 1 µM (panel of 468 kinases [3]) [%] | remaining binding at 1 µM (panel of 468 kinases [4]) [%] | remaining binding at 1 µM (panel of 468 kinases [5]; CDK4-cyclinD1) [%] | remaining binding at 1 µM (panel of 468 kinases [5]; CDK4-cyclinD3) [%] | remaining binding at 1 µM (panel of 468 kinases [5]; CDK4) [%]
CNc1nc(Nc2ccc(S(=O)(=O)N3CCC(N4CCOCC4)CC3)cc2OC)nc2[nH]cc(Cl)c12 [Compound 12, 5-chloro-N2-(2-methoxy-4-((4-morpholinopiperidin-1-yl)sulfonyl)phenyl)-N4-methyl-7H-pyrrolo[2,3-d]pyrimidine-2,4-diamine] | 100 | 100 | 100 | 100 | 74 | 100 | 68
CNc1nc(Nc2ccc(C(=O)N3CCC(N4CCOCC4)CC3)c3c2OCO3)nc2[nH]cc(Cl)c12 [Compound 75, (7-((5-chloro-4-(methylamino)-7H-pyrrolo[2,3-d]pyrimidin-2-yl)amino)benzo[d][1,3]dioxol-4-yl)(4-morpholinopiperidin-1-yl)methanone] | 91 | 99 | 100 | 35 | 81 | 100 | 80
CNc1nc(Nc2ccc(P3(=O)CCN(C4CCOCC4)CC3)cc2OC)nc2[nH]cc(Cl)c12 [Compound 77, 4-(4-((5-chloro-4-(methylamino)-7H-pyrrolo[2,3-d]pyrimidin-2-yl)amino)-3-methoxyphenyl)-1-(tetrahydro-2H-pyran-4-yl)-1,4-azaphosphinane 4-oxide] | 98 | 93 | 96 | 98 | 87 | 100 | 71
